Reference: article PMC10624635, “Design of allosteric sites into rotary motor V1-ATPase by restoring lost function of pseudo-active sites” (Nature Chemistry, 2023)

Molecular target: T1, wild-type V1-ATPase (Enterococcus hirae, UniProt Q08636+Q08637)
T1 construct: gene ntpA
Conditions: MgCl2; pH 6.5, 25 °C; ATP-regenerating system

SMILES: Nc1ncnc2c1ncn2[C@@H]1O[C@H](COP(=O)(O)OP(=O)(O)OP(=O)(O)O)[C@@H](O)[C@H]1O [ATP]
- coupled ATPase assay (NADH, pyruvate kinase / lactate dehydrogenase): We also measured ATPase activity of the wild-type and designed V1
